Values quoted from earlier work in patent US12357667B2, “Nutraceutical formulations to prevent, treat, and inhibit excess cytokines, SARS-CoV-2 spike proteins, and mRNA vaccine spike proteins” (priority 2021, dated 2025).
Where a name gives a salt, the structure may show the parent alone.

Key:
[1] = tested on: SARS-CoV-2
[2] = tested on: SARS-CoV-2; conditions: structure-based molecular docking
[3] = tested on: SARS-CoV-2; conditions: lung epithelial cells
[4] = hyperlipidemic rats
[5] = 6 mg/day for 4 weeks, active young men
[6] = tested on: SARS-CoV-2; remark: listed apart in the source
[7] = tested on: SARS-CoV-2; conditions: patients previously taking CBD relative to matched pairs or the general population
[8] = tested on: mouse hepatitis virus (MHV); conditions: A549-MHVR cells, non-toxic conditions; read-out: EC50, suppression of MHV replication
[9] = tested on: Caco-2 cells
[10] = tested on: astrocytes
[11] = target: cannabinoid G-protein coupled receptor CB2 (Homo sapiens, UniProt P34972)
cannabinoid G-protein coupled receptor CB2, sequence (P34972 whole entry): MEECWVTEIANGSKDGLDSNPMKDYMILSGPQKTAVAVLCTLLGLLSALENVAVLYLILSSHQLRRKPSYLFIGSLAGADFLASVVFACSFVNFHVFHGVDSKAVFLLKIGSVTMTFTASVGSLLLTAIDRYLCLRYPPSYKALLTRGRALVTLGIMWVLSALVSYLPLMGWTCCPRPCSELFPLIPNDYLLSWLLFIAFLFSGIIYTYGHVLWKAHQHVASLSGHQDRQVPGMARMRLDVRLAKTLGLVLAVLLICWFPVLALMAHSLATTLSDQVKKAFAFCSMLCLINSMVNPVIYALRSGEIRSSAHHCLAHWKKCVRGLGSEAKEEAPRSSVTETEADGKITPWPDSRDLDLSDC

[12] = target: CB1 (Homo sapiens, UniProt P21554)
CB1, sequence (P21554 whole entry, species assumed): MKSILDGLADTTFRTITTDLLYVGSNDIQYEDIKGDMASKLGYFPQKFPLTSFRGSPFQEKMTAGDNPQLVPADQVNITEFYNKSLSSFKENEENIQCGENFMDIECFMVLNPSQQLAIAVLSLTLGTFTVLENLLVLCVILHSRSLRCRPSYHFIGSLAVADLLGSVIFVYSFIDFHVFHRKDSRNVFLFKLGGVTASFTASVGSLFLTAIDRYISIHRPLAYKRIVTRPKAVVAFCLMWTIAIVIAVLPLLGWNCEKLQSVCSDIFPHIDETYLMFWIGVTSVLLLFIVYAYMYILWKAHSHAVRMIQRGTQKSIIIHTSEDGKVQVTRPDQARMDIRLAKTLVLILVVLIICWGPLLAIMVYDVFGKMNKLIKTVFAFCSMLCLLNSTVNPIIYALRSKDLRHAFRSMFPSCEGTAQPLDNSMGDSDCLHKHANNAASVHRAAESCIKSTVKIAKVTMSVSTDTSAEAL

[13] = tested on: influenza; conditions: 6-month preventive administration
[14] = tested on: SARS-CoV-2 spike
[15] = tested on: pseudotyped SARS-CoV-2; conditions: VeroE6/TMPRSS2 cells
[16] = target: RBD and ACE2 (Severe acute respiratory syndrome coronavirus 2, UniProt P0DTC2)
[17] = tested on: human influenza viruses (H5N1, Vietnam/VN1203 strain)
[18] = target: T1, 3-chymotrypsin-like protease (3CLpro) (Severe acute respiratory syndrome coronavirus 2, UniProt P0DTD1)
T1 construct: 3-chymotrypsin-like protease (3CLpro)

[19] = target: T2, papain-like protease (PLpro) (Severe acute respiratory syndrome coronavirus 2, UniProt P0DTD1)
T2 construct: papain-like protease (PLpro)

[20] = target: SARS-CoV-2 viral S-spike (Severe acute respiratory syndrome coronavirus 2, UniProt P0DTC2); conditions: supercomputer modeling; out of 20 top performers
[21] = not given; remark: listed apart in the source
[22] = tested on: multiple strains of SARS-CoV-2, including Delta and Omicron
[23] = tested on: HCoV-OC43
[24] = tested on: respiratory syncytial virus; conditions: respiratory syncytial virus-infected mice
[25] = tested on: blood coagulation; conditions: in vitro coagulation assays
[26] = tested on: pseudovirus expressing the SARS-CoV-2 spike protein
[27] = tested on: live SARS-CoV-2
[28] = target: Furin (Homo sapiens, UniProt P09958)
Furin, sequence (P09958 108-794, species assumed): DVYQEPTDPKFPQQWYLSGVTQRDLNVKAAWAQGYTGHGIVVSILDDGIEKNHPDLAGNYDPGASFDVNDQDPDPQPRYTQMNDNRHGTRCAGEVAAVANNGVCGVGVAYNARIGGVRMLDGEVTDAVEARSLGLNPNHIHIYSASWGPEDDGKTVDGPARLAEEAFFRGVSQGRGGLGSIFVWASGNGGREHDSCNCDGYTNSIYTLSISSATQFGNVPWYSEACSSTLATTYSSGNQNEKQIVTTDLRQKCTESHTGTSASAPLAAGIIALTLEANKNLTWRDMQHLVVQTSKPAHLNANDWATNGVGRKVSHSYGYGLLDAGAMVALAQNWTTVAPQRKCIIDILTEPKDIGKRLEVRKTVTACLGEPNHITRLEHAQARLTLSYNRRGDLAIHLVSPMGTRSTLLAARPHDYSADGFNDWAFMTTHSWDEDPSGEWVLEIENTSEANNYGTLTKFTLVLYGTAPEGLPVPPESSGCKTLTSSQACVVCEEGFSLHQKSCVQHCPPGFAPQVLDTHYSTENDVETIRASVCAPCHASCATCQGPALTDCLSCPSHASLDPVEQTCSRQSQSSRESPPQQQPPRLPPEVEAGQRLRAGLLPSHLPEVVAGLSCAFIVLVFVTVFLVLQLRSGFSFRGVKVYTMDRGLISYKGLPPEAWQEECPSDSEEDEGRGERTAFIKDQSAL

[29] = target: T3, main proteases (6Y2E) (Severe acute respiratory syndrome coronavirus 2, UniProt P0DTD1); conditions: 6Y2E active sites
T3 construct: main proteases (6LU7 and 6Y2E)

[30] = tested on: ACE2
[31] = tested on: glutamate-cysteine ligase; set-up: dose or concentration left out as unconfirmed; conditions: zinc, ARPE-19 cells
[32] = tested on: SARS-CoV-2; remark: listed apart in the source
[33] = tested on: PGE-2

Compound: C=C(CC(=O)OCCCCCCCC)C(=O)O [4-octyl-itaconate]
- replication of SARS-CoV-2 in vitro [1]: inhibited replication

Compound: CN1c2c(nc(N)[nH]c2=O)NCC1CNc1ccc(C(=O)N[C@@H](CCC(=O)O)C(=O)O)cc1 (stereo partly shown) [5-methyl tetrahydrofolic acid]
- binding affinities against the SARS-CoV-2 [2]: strong and stable binding affinities

Compound: C=C(C)[C@@H]1CCC(CO)=C[C@H]1c1c(O)cc(CCCCC)cc1O [7-0H-CBD, 7-OH-CBD]
- block of SARS-CoV-2 replication [3]: potently block

Compound: CC1=C(/C=C/C(C)=C/C=C/C(C)=C/C=C/C=C(C)/C=C/C=C(C)/C=C/C2=C(C)C(=O)[C@@H](O)CC2(C)C)C(C)(C)C[C@H](O)C1=O [Astaxanthin]
- coagulation, fibrinolytic activity and platelet aggregation [4]: inhibit coagulation, increase fibrinolytic activity and reduce platelet aggregation
- Glutathione higher compared with placebo [5]: ~7%
- oxidative stress markers or substrate utilization during exercise [5]: did not affect
- Glutathione, whole blood ([5]; fasting blood sample): 1,233±133 μM

Compound: C=C(C)[C@@H]1CCC(C)=C[C@H]1c1c(O)cc(CCCCC)cc1O [CBD, Cannabidiol]
- block of SARS-CoV-2 replication [3]: potently block
- inhibition of SARS-CoV-2 replication ([6]; Vero E6 monkey kidney epithelial cells): inhibited SARS-CoV-2 replication
- toxicity ([6]; at the effective doses): No toxicity
- SARS-CoV-2 infection incidence [7]: significantly lower
- EC50 [8]: ~5 µM
- IL-1β, IL-6, TNF and IL-18 ([9]; ELISA, CBD 10-9-10-7 M): parallel inhibition
- transepithelial electrical resistance (TEER) ([9]; following CBD treatment): restoration
- proinflammatory markers triggered by Spike Protein (TLR-4, ACE-2, RhoA-GTPase, NLRP3, Caspase-1) ([9]; immunoblot, CBD 10-9-10-7 M): reduce all the analyzed proinflammatory markers

Compound: C=C(C)[C@@H]1CCC(C)=C[C@H]1c1c(O)cc(CCC)cc1O [CBDV, cannabidivarin, reference compound]
- levels of interleukin-6 (IL-6) and lactate dehydrogenase (LDH) [10]: attenuated levels

Compound: CCCCCc1cc(O)c(C/C=C(\C)CCC=C(C)C)c(O)c1 [CBG, Cannabigerol]
- levels of DNA damage proteins [10]: decreased levels
- levels of interleukin-6 (IL-6) and lactate dehydrogenase (LDH) [10]: attenuated levels

Compound: CCCCCc1cc(O)c2c(c1)OC(C)(C)c1ccc(C)cc1-2 [Cannabinol]
- binding to CB2 [11]: preferentially binds
- affinity for CB1 [12]: minimal affinity

Compound: CC(=O)N[C@@H](CS)C(=O)O [N-acetylcysteine, reference compound]
- incidence of clinically apparent influenza and influenza-like episodes [13]: significantly reduced
- spike-mediated cell-cell fusion [14]: inhibited
- pseudotyped viral infection [15]: inhibited
- in vitro binding of RBD and ACE2 [16]: inhibited
- inhibition of H5N1 replication [17]: dose dependent manner
- production of pro-inflammatory cytokines (IL-8, CXCL10, CCL5 and IL-6) [17]: reduced the production

Compound: O=c1c(O)c(-c2ccc(O)c(O)c2)oc2cc(O)cc(O)c12 [Quercetin]
- oral absorption / systemic bioavailability: reduced oral absorption
- docking binding energy [18]: -6.25 kcal/mol
- docking binding energy [19]: -4.62 kcal/mol
- rank for inhibition of SARS-CoV-2 viral S-spike binding to cells [20]: fifth
- solubility [21]: low solubility

Compound: C[S+]([O-])CCCCN=C=S (stereo not shown) [SFN, Sulforaphane]
- toxicity in cell culture [22]: limited toxicity
- antiviral activity ([22]; multiple strains of SARS-CoV-2, including Delta and Omicron): potent antiviral activity
- antiviral activity [23]: potent antiviral activity
- lung viral replication and virus-induced inflammation [24]: significantly limited

Compound: CC1=CC(=O)C(C(C)C)=CC1=O [Thymoquinone]
- anticoagulant activity [25]: possesses anticoagulant activity

Compound: C=C(C)[C@@H]1CCC(C)=C[C@H]1c1c(O)cc(CCCCC)c(C(=O)O)c1O [cannabidiolic acid]
- infection of human epithelial cells by pseudovirus [26]: prevented infection
- entry of live SARS-CoV-2 into cells [27]: prevented entry

Compound: CCCCCc1cc(O)c(C/C=C(\C)CCC=C(C)C)c(O)c1C(=O)O [cannabigerolic acid]
- infection of human epithelial cells by pseudovirus [26]: prevented infection
- entry of live SARS-CoV-2 into cells [27]: prevented entry

Compound: COc1cc(/C=C/C(=O)CC(=O)/C=C/c2ccc(O)c(OC)c2)ccc1O [curcumin, diferuloylmethane]
- oral absorption / systemic bioavailability: minimal absorption

Compound: COC(=O)/C=C/C(=O)OC [dimethyl fumarate]
- replication of SARS-CoV-2 in vitro [1]: inhibited replication

Compound: Nc1nc2ncc(CNc3ccc(C(=O)N[C@@H](CCC(=O)O)C(=O)O)cc3)nc2c(=O)[nH]1 [folic acid]
- furin inhibition [28]: inhibit furin
- binding affinities against the SARS-CoV-2 [2]: strong and stable binding affinities

Compound: N[C@@H](CCC(=O)N[C@@H](CS)C(=O)NCC(=O)O)C(=O)O [glutathione, γ-glutamyl cysteinyl glycine]
- spike-mediated cell-cell fusion [14]: inhibited
- oral absorption / systemic bioavailability: poor
- pseudotyped viral infection [15]: inhibited
- in vitro binding of RBD and ACE2 [16]: inhibited

Compound: CC1(C)CC[C@]2(C(=O)O)CC[C@]3(C)C(=CC[C@@H]4[C@@]5(C)CC[C@H](O)[C@@](C)(CO)[C@@H]5CC[C@]43C)[C@@H]2C1 [hederagenin]
- docking binding score with 6Y2E [29]: less than saquinavir

Compound: Cc1c(-c2cnccn2)ssc1=S [oltipraz]
- ACE2 levels [30]: reduces ACE2 levels

Compound: Nc1nc2c(c(=O)[nH]1)NC(CNc1ccc(C(=O)N[C@@H](CCC(=O)O)C(=O)O)cc1)CN2 (stereo partly shown) [tetrahydrofolic acid]
- binding affinities against the SARS-CoV-2 [2]: strong and stable binding affinities

Compound: [Zn] [zinc]
- mRNA levels of glutamate-cysteine ligase [31]: upregulates

Compound: bromelain
- infection of VeroE6 cells by SARS-CoV-2 [32]: inhibits infection
- toxicity [33]: very low toxicity
- effect on PGE-2 inhibition ([33]; compared with prednisone and aspirin): exceeds that of prednisone and aspirin
